This note sets out measurements from US20240262814A1, “MODULATORS OF TREX1” (Constellation Pharmaceuticals, Inc., priority 2021, published 2024).

Usually IC50 stands for the concentration needed to halve the response being measured. Low values mean higher potency, high ones lower potency.

One assay addresses T1, human TREX1 (Homo sapiens, UniProt Q9NSU2).
T1 construct: N-terminally His-Tev tagged full length human TREX1; made in house; host or cells: E. coli
T1 sequence (Q9NSU2 1-314): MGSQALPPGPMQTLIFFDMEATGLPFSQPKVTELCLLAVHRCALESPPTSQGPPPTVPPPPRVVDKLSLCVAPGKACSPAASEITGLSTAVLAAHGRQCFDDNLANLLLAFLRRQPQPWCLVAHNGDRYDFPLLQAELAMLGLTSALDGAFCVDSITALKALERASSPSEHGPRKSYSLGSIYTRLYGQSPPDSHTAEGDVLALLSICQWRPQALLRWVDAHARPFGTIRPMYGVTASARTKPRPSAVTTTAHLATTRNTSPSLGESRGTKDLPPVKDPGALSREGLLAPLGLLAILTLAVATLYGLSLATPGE
Briefly: hTREX1 Biochemical Assay (fluorescence, dsDNA substrate degradation). The following applies: full length human TREX1, 4 h pre-incubation, 18 h reaction at 25° C. In short, it runs like this:
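His-Tev-tagged full-length E. coli-expressed enzyme (4 pM final) preincubated with compound 4 h at 25° C., then 60 nM quenched-fluorophore dsDNA added in Tris pH 7.4, 5 mM MgCl2, 1% DMSO. After 18 h at 25° C., EDTA-quenched; fluorescence 615 nm (ex 570 nm); IC50 from four-parameter fit versus EDTA and no-inhibitor controls.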

A further assay deals with T2, human TREX2 (Homo sapiens, UniProt Q9BQ50).
T2 construct: human TREX2 (residues M44-A279, expressed in E. coli); made in house; host or cells: E. coli
T2 sequence (Q9BQ50 44-279 isoform Q9BQ50-1): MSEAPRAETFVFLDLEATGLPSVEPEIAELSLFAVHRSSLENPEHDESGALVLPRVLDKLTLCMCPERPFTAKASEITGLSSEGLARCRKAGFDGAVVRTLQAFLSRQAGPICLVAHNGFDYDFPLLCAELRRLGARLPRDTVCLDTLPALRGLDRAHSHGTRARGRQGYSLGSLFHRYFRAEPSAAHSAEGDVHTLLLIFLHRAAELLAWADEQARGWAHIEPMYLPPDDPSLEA
Briefly: hTREX2 Biochemical Assay (selectivity hTREX1 vs hTREX2). The following applies: biochemical selectivity for hTREX1 vs hTREX2. In short, it runs like this: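 His-Tev-tagged human TREX2 (M44-A279, E. coli-expressed) preincubated with compound (10-point dose-response) for 4 h at 25 °C in Tris pH 7.4 buffer with 5 mM MgCl2. Reaction then run with 60 nM TEX615/quencher dsDNA and 50 pM enzyme (1% DMSO) for 18 h at 25 °C and EDTA-quenched. Fluorescence read at 615 nm (ex 570 nm); IC50 by four-parameter fit against pre-quenched and no-inhibitor controls.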

The target of the next assay is T3, mouse TREX1 (Mus musculus, UniProt Q91XB0).
T3 construct: N-terminally His-Tev tagged full length mouse TREX1; made in house; host or cells: E. coli
T3 sequence (Q91XB0 1-314): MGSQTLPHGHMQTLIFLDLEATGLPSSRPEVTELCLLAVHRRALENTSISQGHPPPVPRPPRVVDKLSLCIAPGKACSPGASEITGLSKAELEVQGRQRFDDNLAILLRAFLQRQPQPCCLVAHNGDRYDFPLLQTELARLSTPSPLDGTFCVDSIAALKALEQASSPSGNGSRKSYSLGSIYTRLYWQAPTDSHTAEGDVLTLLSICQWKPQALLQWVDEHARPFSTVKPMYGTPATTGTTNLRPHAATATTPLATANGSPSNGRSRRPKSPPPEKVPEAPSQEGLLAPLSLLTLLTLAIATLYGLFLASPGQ
Nature of the assay: mTREX1 Biochemical Assay (fluorescence, dsDNA substrate degradation). The following applies: full length mouse TREX1, 4 h pre-incubation, 18 h reaction at 25° C. In a few lines: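 Full-length His-Tev mouse TREX1 (E. coli) was preincubated with compound 4 h at 25 °C, then run 18 h at 25 °C. Finals were 6 pM enzyme, 60 nM TEX615/quencher dsDNA, 1% DMSO, pH 7.4 Tris with 5 mM MgCl2. After EDTA quench, fluorescence was read at 615 nm; IC50 by four-parameter fit against EDTA and no-inhibitor controls.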

Consider `CC(c1nc(C(=O)Nc2cnoc2)c(O)c(=O)[nH]1)C(c1ccccc1C#N)c1ccccc1C#N` (single isomer, unassigned) [Example 5 Isomer 1, 2-(1,1-bis(2-cyanophenyl)propan-2-yl)-5-hydroxy-N-(isoxazol-4-yl)-6-oxo-1,6-dihydropyrimidine-4-carboxamide], for which the IC50 against human TREX1 was under 0.001 µM; against mouse TREX1, 0.001 to 0.01 µM. For the same compound, the “hTREX1 vs hTREX2 selectivity” value at human TREX2 is reported as “B (B = 25 to 50 fold selective for hTREX1)”.
As to `Cn1c([C@H](C(c2ccccc2)c2ccccc2)C(F)(F)F)nc(C(=O)Nc2cnoc2)c(O)c1=O` (single isomer, unassigned) [Example 20 Isomer 2, 5-Hydroxy-N-(isoxazol-4-yl)-1-methyl-6-oxo-2-(1,1,1-trifluoro-3,3-diphenylpropan-2-yl)-1,6-dihydropyrimidine-4-carboxamide], the IC50 against human TREX1 was over 0.1 µM; against mouse TREX1 it was over 0.01 µM. Also, at human TREX2, the “hTREX1 vs hTREX2 selectivity” value is on record as “A (A = <25 fold selective for hTREX1)”.
In the same order, the values of `Cn1c(CC(c2ccccc2)c2ccccc2)nc(C(=O)Nc2cnoc2)c(O)c1=O` [Example A, 2-(2,2-diphenylethyl)-5-hydroxy-N-(isoxazol-4-yl)-1-methyl-6-oxo-1,6-dihydropyrimidine-4-carboxamide] are over 0.1 µM, over 0.01 µM and “A (A = <25 fold selective for hTREX1)”.
With `C[C@H](c1nc(C(=O)Nc2cnoc2)c(O)c(=O)n1C)[C@H](c1ccccc1)c1ccccc1Cl` (single isomer, unassigned) [Example 2 Isomer 4, 2-(1-(2-chlorophenyl)-1-phenylpropan-2-yl)-5-hydroxy-N-(isoxazol-4-yl)-1-methyl-6-oxo-1,6-dihydropyrimidine-4-carboxamide], the IC50 is over 0.1 µM on human TREX1 and over 0.01 µM on mouse TREX1. Further, the “hTREX1 vs hTREX2 selectivity” value at human TREX2 was “A (A = <25 fold selective for hTREX1)”.
Take `CC(c1nc(C(=O)Nc2cnoc2)c(O)c(=O)n1C)C(c1ccc(F)c(F)c1)c1ccccc1C#N` (single isomer, unassigned) [Example 12 Isomer 1]: the results for the IC50 against human TREX1 and against mouse TREX1 were 0.001 to 0.01 µM and over 0.01 µM, respectively. In addition, the “hTREX1 vs hTREX2 selectivity” value on human TREX2 is “C (C = >50 fold selective for hTREX1)”.
As for `C[C@H](c1nc(C(=O)Nc2cnoc2)c(O)c(=O)n1C)[C@H](c1ccccc1)c1ccccc1Cl` (single isomer, unassigned) [Example 2 Isomer 1, 2-[1-(2-chlorophenyl)-1-phenylpropan-2-yl]-5-hydroxy-1-methyl-N-(1,2-oxazol-4-yl)-6-oxopyrimidine-4-carboxamide], the IC50 against human TREX1 was 0.001 to 0.01 µM; against mouse TREX1, over 0.01 µM. Besides, the “hTREX1 vs hTREX2 selectivity” value on human TREX2 was “A (A = <25 fold selective for hTREX1)”.
On to `CC(c1nc(C(=O)Nc2cnoc2)c(O)c(=O)n1C)C(c1ccccc1)c1cc(Cl)ccc1C#N` (single isomer, unassigned) [Example 8 Isomer 3], for which the IC50 is 0.001 to 0.01 µM on human TREX1 and over 0.01 µM at mouse TREX1. Also, the “hTREX1 vs hTREX2 selectivity” value on human TREX2 is on record as “C (C = >50 fold selective for hTREX1)”.
As for `CC(c1nc(C(=O)Nc2cnoc2)c(O)c(=O)n1C)C(c1ccccc1)c1ccc(Cl)cc1C#N` (single isomer, unassigned) [Example 9 Isomer 2], the concentration for half-maximal inhibition (IC50) at human TREX1 is over 0.1 µM; at mouse TREX1 it was over 0.01 µM. Also, on human TREX2, the “hTREX1 vs hTREX2 selectivity” value was “B (B = 25 to 50 fold selective for hTREX1)”.
Regarding `C[C@H](c1nc(C(=O)Nc2cnoc2)c(O)c(=O)n1C)[C@H](c1ccccc1)c1ccccc1C(F)(F)F` (single isomer, unassigned) [Example 14 Isomer 4, 5-Hydroxy-N-(isoxazol-4-yl)-1-methyl-6-oxo-2-(1-phenyl-1-(2-(trifluoromethyl)phenyl)propan-2-yl)-1,6-dihydropyrimidine-4-carboxamide], the IC50 against human TREX1 was 0.001 to 0.01 µM; on mouse TREX1 it was over 0.01 µM. Besides, the “hTREX1 vs hTREX2 selectivity” value at human TREX2 is given as “B (B = 25 to 50 fold selective for hTREX1)”.
As to `CC(c1nc(C(=O)Nc2cnoc2)c(O)c(=O)n1C)C(c1ccccc1)c1cc(F)ccc1C#N` (single isomer, unassigned) [Example 6 Isomer 3], the IC50 against human TREX1 is over 0.1 µM; on mouse TREX1, over 0.01 µM. Besides, the “hTREX1 vs hTREX2 selectivity” value at human TREX2 is on record as “A (A = <25 fold selective for hTREX1)”.
Turning to `CC(c1nc(C(=O)Nc2cnoc2)c(O)c(=O)n1C)C(c1ccccc1)c1ccc(Cl)cc1C#N` (single isomer, unassigned) [Example 9 Isomer 1], the IC50 is 0.001 to 0.01 µM on human TREX1 and over 0.01 µM at mouse TREX1. For the same compound, the “hTREX1 vs hTREX2 selectivity” value on human TREX2 is “C (C = >50 fold selective for hTREX1)”.
In the same order, the values of `CC(c1nc(C(=O)Nc2cnoc2)c(O)c(=O)n1C)C(c1ccc(F)cc1F)c1ccccc1C#N` (single isomer, unassigned) [Example 13 Isomer 3] are 0.01 to 0.1 µM, over 0.01 µM and “B (B = 25 to 50 fold selective for hTREX1)”.
On to `CC(c1nc(C(=O)Nc2cnoc2)c(O)c(=O)n1C)C(c1ccccc1Cl)c1ccccc1C#N` (single isomer, unassigned) [Example 10 Isomer 4], for which the IC50 is under 0.001 µM against human TREX1 and 0.001 to 0.01 µM on mouse TREX1. Also, the “hTREX1 vs hTREX2 selectivity” value on human TREX2 is recorded as “C (C = >50 fold selective for hTREX1)”.
On to `CC(c1nc(C(=O)Nc2cnoc2)c(O)c(=O)n1C)C(c1ccccc1)c1ccccc1C#N` (single isomer, unassigned) [Example 3 Isomer 2], for which the IC50 against human TREX1 was over 0.1 µM; on mouse TREX1, over 0.01 µM. The “hTREX1 vs hTREX2 selectivity” value on human TREX2 is recorded as “A (A = <25 fold selective for hTREX1)”.
